Results taken from US20210254056A1, “IDENTIFICATION AND TARGETED MODULATION OF GENE SIGNALING NETWORKS” (CAMP4 THERAPEUTICS CORPORATION, priority 2017, published 2021).

How the values were obtained:
hepatocytes [1] = experiment: RNA-seq of hepatocytes stimulated with the compounds of Table 68; details: hepatocytes, RNA-seq
hepatocytes [2] = experiment: qRT-PCR validation of the Example 12 RNA-seq results;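 also: Compound-treated versus DMSO control, target Ct normalized to GAPDH or β-actin reference (ΔΔCt method), positive values mean higher expression than DMSO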
[3] = test system: Early erythroblast progenitor cells derived from cord blood; experiment: Reversion of immortality after doxycycline withdrawal (qRT-PCR, cell size); format: cell-based, human
[4] = test system: Hematopoietic progenitor CD34+ cells; experiment: qRT-PCR after inducible (pTRIPZ) shRNA knockdown in CD34+ cells; format: cell-based, human; details: for RQ, BAG1: relative quantification of BAG1 expression vs puro_shNT; for RQ, BAG1 / RQ, BAX / RQ, GATA1 / RQ, GATA2 / RQ, MDM2: pTRIPZ dox inducible shRNA, B-Actin internal control, Table 81; for RQ, BAX: relative quantification of BAX expression vs puro_shNT; for RQ, GATA1: relative quantification of GATA1 expression vs puro_shNT; for RQ, GATA2: relative quantification of GATA2 expression vs puro_shNT; for RQ, HBB: relative quantification of HBB expression vs puro_shNT; for RQ, HBB / RQ, RPL11 / RQ, RPS19 / RQ, p21 / RQ, p53: inducible pTRIPZ shRNA, CD34+ cells, B-ACTIN, Table 80; for RQ, MDM2: relative quantification of MDM2 expression vs puro_shNT; for RQ, RPL11: relative quantification of RPL11 expression vs puro_shNT; for RQ, RPS19: relative quantification of RPS19 expression vs puro_shNT; for RQ, p21: relative quantification of p21 expression vs puro_shNT; for RQ, p53: relative quantification of p53 expression vs puro_shNT
Procedure: Conditionally immortalized cord blood CD34+ cells were transduced with the shRNA lentiviruses using the retronectin-transduction protocol (Clontech). Puromycin selection was performed 24-48 hours post-transduction. Cells were counted to monitor cell viability. After 12 days, which allowed for a large biomass, knockdown efficiency was analyzed. qRT-PCR was used to identify changes in mRNA, and Western blot was used to determine levels of protein depletion.
For RNA extraction, 1×10^6 cells were harvested in 500 μL of TRIZOL reagent (Thermo Scientific), and incubated for 5 minutes at room temperature. Then, 100 μL of chloroform was added to the cells, and the mixture was vortexed and then centrifuged at 12,000× gravity for 15 minutes. The aqueous phase was transferred to fresh tubes and one volume of 70% ethanol was added. The TRIZOL Plus RNA purification Kit (Thermo Scientific) was used for the remaining extraction protocol according to the manufacturer's instructions. For the conversion of RNA to cDNA the High Capacity cDNA RT kit (Thermo Scientific) was used according to the manufacturer's instructions. The cDNA was analyzed with qRT-PCR to determine the fold change of knockdown cells using Taqman Fast PCR mix and Applied Biosystems probes (Thermo Scientific).
shRNAs targeting RPS19, p53, or RPL11 were delivered to normal cord blood erythroblast cells using either the pLKO (constitutive) and pTRIPZ (inducible) plasmids described in Example 1. The mRNA expression of the p53 pathway proteins; progenitor factor GATA2; and differentiation factors HBB and GATA1 were measured by qRT-PCR. Cells not transduced with a shRNA as well as cells transduced with a non-targeting shRNA served as controls.
Hematopoietic progenitor CD34^+ cells were transduced with the pTRIPZ inducible lentiviral plasmids containing p53_sh1, puro_shNT, RPL11_1, RPL11_2, RPS19_1, or RPS19_2.
The relative expression of GATA1, GATA2, MDM2, BAX, and BAG1 were also analyzed in cells transduced with a pTRIPZ dox inducible shRNA. B-Actin was used as an internal control.

[5] = sample D2-dox+ (day 2, on doxycycline; reference)
[6] = sample D6-dox− (6 days after doxycycline withdrawn)

In the case of `C[C@]12C=CC(=O)C=C1CC[C@@H]1[C@@H]2C(=O)C[C@@]2(C)[C@H]1CC[C@]2(O)C(=O)CO` [MT-861, Prednisone], the “Cuffdiff log2fc, AMACR” value (hepatocytes [1]; log 2 fold change in AMACR gene expression, Cuffdiff) was −1.4, the “DESeq log2fc, AMACR” value (hepatocytes [1]; log 2 fold change in AMACR gene expression, DESeq) was −1.24 and the “Cuffdiff log2fc, ARG1” value (hepatocytes [1]; log 2 fold change in ARG1 gene expression, Cuffdiff) was 1.48. For the same compound, the “DESeq log2fc, ARG1” value (hepatocytes [1]; log 2 fold change in ARG1 gene expression, DESeq) was 1.59, the “Cuffdiff log2fc, CA2” value (hepatocytes [1]; log 2 fold change in CA2 gene expression, Cuffdiff) was −1.05 and the “DESeq log2fc, CA2” value (hepatocytes [1]; log 2 fold change in CA2 gene expression, DESeq) was −0.95. The “Cuffdiff log2fc, CIDEC” value (hepatocytes [1]; log 2 fold change in CIDEC gene expression, Cuffdiff) was 1.02, the “DESeq log2fc, CIDEC” value (hepatocytes [1]; log 2 fold change in CIDEC gene expression, DESeq) was 1.19 and the “Cuffdiff log2fc, CPS1” value (hepatocytes [1]; log 2 fold change in CPS1 gene expression, Cuffdiff) was 2.14. For the same compound, the “DESeq log2fc, CPS1” value (hepatocytes [1]; log 2 fold change in CPS1 gene expression, DESeq) was 2.17, the “Cuffdiff log2fc, ENO3” value (hepatocytes [1]; log 2 fold change in ENO3 gene expression, Cuffdiff) was −1.24 and the “DESeq log2fc, ENO3” value (hepatocytes [1]; log 2 fold change in ENO3 gene expression, DESeq) was −1.03. The “Cuffdiff log2fc, G6PC” value (hepatocytes [1]; log 2 fold change in G6PC gene expression, Cuffdiff) was 1.02, the “DESeq log2fc, G6PC” value (hepatocytes [1]; log 2 fold change in G6PC gene expression, DESeq) was 1.03 and the “Cuffdiff log2fc, GYS2” value (hepatocytes [1]; log 2 fold change in GYS2 gene expression, Cuffdiff) was 2.21. For the same compound, the “DESeq log2fc, GYS2” value (hepatocytes [1]; log 2 fold change in GYS2 gene expression, DESeq) was 2.49, the “Cuffdiff log2fc, HGD” value (hepatocytes [1]; log 2 fold change in HGD gene expression, Cuffdiff) was 1.23 and the “DESeq log2fc, HGD” value (hepatocytes [1]; log 2 fold change in HGD gene expression, DESeq) was 1.31. For the same compound, the “Cuffdiff log2fc, HOGA1” value (hepatocytes [1]; log 2 fold change in HOGA1 gene expression, Cuffdiff) was 1, the “DESeq log2fc, HOGA1” value (hepatocytes [1]; log 2 fold change in HOGA1 gene expression, DESeq) was 1.04 and the “Cuffdiff log2fc, HPGD” value (hepatocytes [1]; log 2 fold change in HPGD gene expression, Cuffdiff) was 2.07. For the same compound, the “DESeq log2fc, HPGD” value (hepatocytes [1]; log 2 fold change in HPGD gene expression, DESeq) was 2.29, the “Cuffdiff log2fc, NCF2” value (hepatocytes [1]; log 2 fold change in NCF2 gene expression, Cuffdiff) was −1.71 and the “DESeq log2fc, NCF2” value (hepatocytes [1]; log 2 fold change in NCF2 gene expression, DESeq) was −1.6. For the same compound, the “Cuffdiff log2fc, RMRP” value (hepatocytes [1]; log 2 fold change in RMRP gene expression, Cuffdiff) was −1.43, the “DESeq log2fc, RMRP” value (hepatocytes [1]; log 2 fold change in RMRP gene expression, DESeq) was −0.78 and the “Cuffdiff log2fc, SLC37A4” value (hepatocytes [1]; log 2 fold change in SLC37A4 gene expression, Cuffdiff) was 1.16. For the same compound, the “DESeq log2fc, SLC37A4” value (hepatocytes [1]; log 2 fold change in SLC37A4 gene expression, DESeq) was 1.18, the “Cuffdiff log2fc, TAT” value (hepatocytes [1]; log 2 fold change in TAT gene expression, Cuffdiff) was 2.37 and the “DESeq log2fc, TAT” value (hepatocytes [1]; log 2 fold change in TAT gene expression, DESeq) was 2.48. For the same compound, the “Cuffdiff log2fc, TDO2” value (hepatocytes [1]; log 2 fold change in TDO2 gene expression, Cuffdiff) was 1.05, the “DESeq log2fc, TDO2” value (hepatocytes [1]; log 2 fold change in TDO2 gene expression, DESeq) was 1.21 and the “qRT-PCR log2fc, AMACR” value (hepatocytes [2]; log 2 fold change in AMACR gene expression) was −0.35. For the same compound, the “qRT-PCR log2fc, ARG1” value (hepatocytes [2]; log 2 fold change in ARG1 gene expression) was 1.53, the “qRT-PCR log2fc, CA2” value (hepatocytes [2]; log 2 fold change in CA2 gene expression) was −0.1 and the “qRT-PCR log2fc, CIDEC” value (hepatocytes [2]; log 2 fold change in CIDEC gene expression) was 1.1. For the same compound, the “qRT-PCR log2fc, CPS1” value (hepatocytes [2]; log 2 fold change in CPS1 gene expression) was 0.61, the “qRT-PCR log2fc, ENO3” value (hepatocytes [2]; log 2 fold change in ENO3 gene expression) was −0.03 and the “qRT-PCR log2fc, G6PC” value (hepatocytes [2]; log 2 fold change in G6PC gene expression) was 0.76. The “qRT-PCR log2fc, GYS2” value (hepatocytes [2]; log 2 fold change in GYS2 gene expression) was 0.71, the “qRT-PCR log2fc, HGD” value (hepatocytes [2]; log 2 fold change in HGD gene expression) was 0.5 and the “qRT-PCR log2fc, HOGA1” value (hepatocytes [2]; log 2 fold change in HOGA1 gene expression) was 1.47. The “qRT-PCR log2fc, HPGD” value (hepatocytes [2]; log 2 fold change in HPGD gene expression) was 0.36, the “qRT-PCR log2fc, NCF2” value (hepatocytes [2]; log 2 fold change in NCF2 gene expression) was −0.4 and the “qRT-PCR log2fc, RMRP” value (hepatocytes [2]; log 2 fold change in RMRP gene expression) was −0.33. For the same compound, the “qRT-PCR log2fc, SLC37A4” value (hepatocytes [2]; log 2 fold change in SLC37A4 gene expression) was 0.99, the “qRT-PCR log2fc, TAT” value (hepatocytes [2]; log 2 fold change in TAT gene expression) was 3.26 and the “qRT-PCR log2fc, TDO2” value (hepatocytes [2]; log 2 fold change in TDO2 gene expression) was 1.41.
With `C[C@H]1c2cccc(O)c2C(=O)C2=C(O)[C@]3(O)C(=O)C(C(N)=O)=C(O)[C@@H](N(C)C)[C@@H]3[C@@H](O)[C@@H]21` [dox] the “RQ of ALAS2” value [3, 5] was 1.00, the “RQ of BCLXL” value [3, 5] was 1.00 and the “RQ of HBB” value [3, 5] was 1.00. The “RQ of MYC” value [3, 5] was 1.00, the “RQ of p21” value [3, 5] was 1.00 and the “RQ of p53” value [3, 5] was 1.00. The “RQ (relative quantification of expression) of RPS19” value ([3]; sample D2-dox+ (day 2, on doxycycline; reference), B-ACTIN control) was 1.00, the “RQ of ALAS2” value [3, 6] was 0.17 and the “RQ of BCLXL” value [3, 6] was 0.03. For the same compound, the “RQ of HBB” value [3, 6] was 0.57, the “RQ of MYC” value [3, 6] was 0.03 and the “RQ of RPS19” value [3, 6] was 0.21. The “RQ of p21” value [3, 6] was 1.14 and the “RQ of p53” value [3, 6] was 0.16.
With “RPS19_1 (guide TAGAACCAGTTCTCATCGTA; chemistry not fully specified; listed as Homo sapiens)” the “RQ, BAG1” value [4] was 1.16, the “RQ, BAX” value [4] was 1.57 and the “RQ, GATA1” value [4] was 0.67. For the same compound, the “RQ, GATA2” value [4] was 1.53, the “RQ, HBB” value [4] was 0.50 and the “RQ, MDM2” value [4] was 2.72. The “RQ, RPL11” value [4] was 1.90, the “RQ, RPS19” value [4] was 0.47 and the “RQ, p21” value [4] was 5.87. The “RQ, p53” value [4] was 1.66.
“RPS19_2 (guide CTTGACGGTATCCACCCATT; chemistry not fully specified; listed as Homo sapiens)” was tested, and the “RQ, BAG1” value [4] was 1.08, the “RQ, BAX” value [4] was 1.29 and the “RQ, GATA1” value [4] was 0.87. The “RQ, GATA2” value [4] was 1.23, the “RQ, HBB” value [4] was 0.55 and the “RQ, MDM2” value [4] was 1.38. The “RQ, RPL11” value [4] was 1.46, the “RQ, RPS19” value [4] was 0.77 and the “RQ, p21” value [4] was 1.73. The “RQ, p53” value [4] was 1.12.
